Counter-ions that a name gives are not always drawn. Like-named read-outs stand apart in the source and are kept apart here.
Tests used:
ORL-1 receptor [1] = target: ORL-1 receptor (Homo sapiens, UniProt P41146); experiment: Receptor binding studies, radioligand [3H]-AcRYYRWK-NH2
Method: The receptor binding studies were carried out on 96-well plates; the incubation medium was Tris HCl pH 7.4 (4° C.) containing MgCl2 (5 mM), EGTA (0.2 mM), BSA (0.1%), with a final volume of 1.0 ml, using as radioligand [^3H]-AcRYYRWK-NH2 (Amersham, 103 Ci/mmol). The samples were incubated at 37° C. for 120 min. and were then filtered off via Whatman GF/B filters pre-treated with 0.2% polyethylenimine. The filters were washed three times with Tris HCl buffer pH 7.4 (4° C.). The radioactivity present on the filters was measured using a Packard Top Count microplate scintillation counter.

ORL-1 receptor [2] = target: T1, ORL-1 receptor (Cavia porcellus, UniProt P47748); experiment: Electrically stimulated guinea pig ileum (GPI) assay; type: cell-based
T1 construct: evaluated for ORL-1 functional activity in electrically stimulated guinea pig ileum; from tissue; host or cells: guinea pig ileum
T1 sequence (P47748 whole entry): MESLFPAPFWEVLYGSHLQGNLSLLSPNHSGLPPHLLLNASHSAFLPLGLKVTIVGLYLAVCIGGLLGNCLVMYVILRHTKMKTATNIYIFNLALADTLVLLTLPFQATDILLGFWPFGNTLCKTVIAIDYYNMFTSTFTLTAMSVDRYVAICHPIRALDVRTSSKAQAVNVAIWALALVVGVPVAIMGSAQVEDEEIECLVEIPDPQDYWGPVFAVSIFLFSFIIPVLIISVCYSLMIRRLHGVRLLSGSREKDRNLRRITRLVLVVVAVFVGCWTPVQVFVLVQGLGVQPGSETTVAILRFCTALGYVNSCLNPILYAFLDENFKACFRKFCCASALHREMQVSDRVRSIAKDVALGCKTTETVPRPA
Method: Compounds of the invention are evaluated for ORL-1 functional activity in electrically stimulated guinea pig ileum, in agreement with the experimental protocol described in Caló et. al., Br. J. Pharmacol. 129, 1183, (2000). The ORL-1 antagonist activity (pKb) is evaluated against the endogenous ORL-1 agonist N/OFQ.

[3] = ORL-1 receptor, radioligand [3H]-AcRYYRWK-NH2, read-out: Binding affinity Ki
[4] = electrically stimulated guinea pig ileum, against the endogenous ORL-1 agonist N/OFQ, read-out: Antagonist activity (GPI) pKb vs N/OFQ (converted)

ORL-1 receptor (Homo sapiens, UniProt P41146), sequence (P41146 whole entry): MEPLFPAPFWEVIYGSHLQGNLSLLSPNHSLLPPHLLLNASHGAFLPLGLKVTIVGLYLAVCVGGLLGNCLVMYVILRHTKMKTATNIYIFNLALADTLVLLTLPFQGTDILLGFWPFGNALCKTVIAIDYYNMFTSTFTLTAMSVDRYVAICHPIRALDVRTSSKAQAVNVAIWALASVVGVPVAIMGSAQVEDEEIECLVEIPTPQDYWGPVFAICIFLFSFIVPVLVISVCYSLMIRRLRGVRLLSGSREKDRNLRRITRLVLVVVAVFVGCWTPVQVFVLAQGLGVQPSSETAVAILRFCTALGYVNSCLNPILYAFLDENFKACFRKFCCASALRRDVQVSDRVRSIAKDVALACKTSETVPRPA

O=C(c1[nH]c2ccccc2c1CN1CCC(c2c(Cl)cccc2Cl)CC1)N1CCN(CCCO)CC1 [Example 75, {3-[4-(2,6-Dichloro-phenyl)-piperidin-1-ylmethyl]-1H-indol-2-yl}-[4-(3-hydroxy-propyl)-piperaizn-1-yl]-methanone] showed a Ki (ORL-1 receptor [1]; [3]) of 1.5 nM and a Kb (ORL-1 receptor [2]; [4]) of 3.02 nM.

Compound Cc1cccc(C)c1C1CCN(Cc2c(C(=O)N3C[C@@H]4C[C@H]3CO4)[nH]c3ccccc23)CC1 [Example 96] has a Ki (ORL-1 receptor [1]; [3]) of 10 nM and a Kb (ORL-1 receptor [2]; [4]) of 1.95 nM.

Cc1cccc(C)c1C1CCN(Cc2c(C(=O)N3CCN(CCOCCO)CC3)[nH]c3ccccc23)CC1 [Example 97, {3-[4-(2,6-Dimethyl-phenyl)-piperidin-1-ylmethyl]-1H-indol-2-yl}-{4-[2-(2-hydroxy-ethoxy)-ethyl]-piperazin-1-yl}-methanone] showed a Ki (ORL-1 receptor [1]) of 6.5 nM and a Kb (ORL-1 receptor [2]) of 1 nM.

Cc1cccc(C)c1C1CCN(Cc2c(C(=O)N3CCC4(CCN(C)C4)C3)[nH]c3ccccc23)CC1 (stereo not drawn) [Example 109, {3-[4-(2,6-Dimethyl-phenyl)-piperidin-1-ylmethyl]-1H-indol-2-yl}-(7-methyl-2,7-diaza-spiro[4.4]non-2-yl)-methanone] gave a Ki (ORL-1 receptor [1]; [3]) of 5.4 nM and a Kb (ORL-1 receptor [2]; [4]) of 1.23 nM.

Compound NC(=O)Cn1c(-c2ccccc2)c(CN2CCC(c3c(Cl)cccc3Cl)CC2)c2ccccc21 [Example 143, 2-(3-[4-(2,6-Dichloro-phenyl)-piperidin-1-ylmethyl]-2-phenyl-indol-1-yl)-acetamide] has a Ki (ORL-1 receptor [1]; [3]) of 3.2 nM and a Kb (ORL-1 receptor [2]; [4]) of 2.24 nM.

For NC(=O)Cn1c(C(=O)N2CCOCC2)c(CN2CCC(c3c(Cl)cccc3Cl)CC2)c2ccccc21 [Example 150, 2-[3-[4-(2,6-Dichloro-phenyl)-piperidin-1-ylmethyl]-2-(morpholine-4-carbonyl)-indol-1-yl]-acetamide hydrochloride], the Ki (ORL-1 receptor [1]; [3]) was 8 nM and the Kb (ORL-1 receptor [2]) was 8.91 nM.

Work on CN1CCC(NC(=O)Cn2c(-c3ccccc3)c(CN3CCC(c4c(Cl)cccc4Cl)CC3)c3ccccc32)CC1 [Example 160, 2-{3-[4-(2,6-Dichloro-phenyl)-piperidin-1-ylmethyl]-2-phenyl-indol-1-yl}-N-(1-methyl-piperidin-4-yl)-acetamide] yielded a Ki (ORL-1 receptor [1]) of 0.7 nM and a Kb (ORL-1 receptor [2]) of 1.74 nM.

With CN1CCC(NC(=O)Cn2c(C(=O)N3CCOCC3)c(CN3CCC(c4c(Cl)cccc4Cl)CC3)c3ccccc32)CC1 [Example 161, 2-[3-[4-(2,6-Dichloro-phenyl)-piperidin-1-ylmethyl]-2-(morpholine-4-carbonyl)-indol-1-yl]-N-(1-methyl-piperidin-4-yl)-acetamide dihydrochloride] the Ki (ORL-1 receptor [1]; [3]) was 8.2 nM and the Kb (ORL-1 receptor [2]; [4]) was 0.955 nM.

Cc1cccc(C)c1C1CCN(Cc2c(-c3ccccc3)n(CC(=O)NC3CCN(C)CC3)c3ccccc23)CC1 [Example 165, 2-{3-[4-(2,6-Dimethyl-phenyl)-piperidin-1-ylmethyl]-2-phenyl-indol-1-yl}-N-(1-methyl-piperidin-4-yl)-acetamide ditrifluoroacetate] showed a Ki (ORL-1 receptor [1]; [3]) of 4.6 nM and a Kb (ORL-1 receptor [2]) of 4.17 nM.

— patent US20090275555A1, “Substituted indole ligands for the ORL-1 receptor” (priority 2004, published 2009)
